Measurements taken from patent US8314068B2, “P2X7 inhibition of epithelial cancers and papillomas” (University Hospitals of Cleveland, priority 2009, dated 2012).
“Also recorded” adds a separate entry of the source.

What was measured:
WT-MDCK cells = assay: Apoptosis in wild-type MDCK cells lacking P2X7; assay type: cell-based, canine; settings: 100 μM, 8 hrs
From the text: Human epidermal squamous cell carcinoma-9 (SCC-9) cells and Madin Darby canine kidney cells (MDCK, strain II) were obtained from the ATCC. […] Apoptosis may be quantified in terms of percent solubilized DNA (Wang et al, 2004a), or by using the commercial cell-death detection ELISA kit (Roche Applied Science, Nutley, N.J.) (Feng et al, 2006). […] The sequences of the 20-mer ASO that would hybridize to the coding region of exon 7 (nt 724-741), and the RCO were as follows: […] In the RCO, the antisense sequence was randomly replaced with adenine and thymine residues so that the oligonucleotides had the same length (20-mer) and GC content (33%) as the ASO.

[1] = molecular target: T1, human full-length P2X7 receptor (N-Myc-hP2X7-MDCK cells) (Homo sapiens, UniProt Q99572); assay: Apoptosis and P2X7 expression in N-Myc-hP2X7-MDCK cells; assay type: cell-based; settings: BzATP 100 μM, 8 hrs
T1 construct: MDCK cells heterologously expressing the human full-length P2X7 receptor tagged with N-Myc at the N-terminus; expressed in transfected cells; host or cells: MDCK (strain II) cells expressing tetracycline-regulated repressor
T1 sequence (Q99572 1-595): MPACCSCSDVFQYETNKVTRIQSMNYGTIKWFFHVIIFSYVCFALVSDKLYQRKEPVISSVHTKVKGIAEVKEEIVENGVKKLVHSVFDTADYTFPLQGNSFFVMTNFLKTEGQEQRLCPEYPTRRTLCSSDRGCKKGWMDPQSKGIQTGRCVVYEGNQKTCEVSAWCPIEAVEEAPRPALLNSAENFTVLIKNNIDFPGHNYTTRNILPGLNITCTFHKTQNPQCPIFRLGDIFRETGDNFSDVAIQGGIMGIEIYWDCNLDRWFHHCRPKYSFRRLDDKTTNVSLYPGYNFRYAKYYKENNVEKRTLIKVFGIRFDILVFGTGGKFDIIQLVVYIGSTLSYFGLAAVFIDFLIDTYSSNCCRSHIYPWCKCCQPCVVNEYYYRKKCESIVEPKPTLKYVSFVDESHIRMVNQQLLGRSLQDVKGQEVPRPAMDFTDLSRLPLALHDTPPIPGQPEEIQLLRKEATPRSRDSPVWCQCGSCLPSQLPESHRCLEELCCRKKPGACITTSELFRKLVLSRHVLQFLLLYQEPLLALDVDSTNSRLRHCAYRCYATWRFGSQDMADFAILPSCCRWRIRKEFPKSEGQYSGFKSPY

mouse skin = assay: Local BzATP on normal mouse dorsal skin, 4 weeks (tolerability, apoptosis); assay type: in vivo
Protocol: BzATP (100 μM in 200 μl [20 nmol, 14.3 μg, 1.0 μg/cm^2]), was applied twice weekly for 4 weeks on the posterior region of the shaved dorsal skin. The concentration/dose of BzATP and frequency of treatments were chosen based on the above discussed cell culture data. Each animal served as its own control by having vehicle-containing solution applied twice weekly for 4 weeks on the anterior region of the shaved dorsal skin.
TUNEL assays in tissues cross sections were performed using DeadEnd™ Fluorometric TUNEL System (Promega, Madison, Wis.) according to the manufacturer's protocol. For TUNEL-P2X7 co-staining, tissue cross sections were first assayed for TUNEL, followed by P2X7 immunostaining.
Experiments using mice were done according to an approved CWRU IACUC IRB protocol [2006-0141]. Experiments utilized 6-8 weeks old FVB female mice (obtained from Charles River, Wilmington, Mass.). The animal's dorsal skin (about 3×5 cm) was shaved using Oster animal clipper (Mountain Home, Ark.) followed by weekly application of Nair® hair remover lotion. Treatments included the application of one or more of the following drugs, directly onto the shaved dorsal skin: DMBA (50 μg/200 μl acetone [950 μM, 190 nmol, 3.3 μg/cm^2]); TPA (3 μg/200 μl acetone [20 μM, 4 nmol, 0.2 μg/cm^2]); BzATP (14.3 μg/200 μl of 2.3/1 vol/vol solution of propylene-glycol [PG]/ethanol [EtOH][100 μM, 20 nmol, 1.0 μg/cm^2]); or the BzATP vehicle only (200 μl of PG/EtOH). DMBA was applied once, while TPA and BzATP were applied twice a week. Skin neoplasia in the mice were induced by the “Two-Step” method, which involved tumor initiation by local treatment with 7,12-dimethylbenz(a)anthracene (DMBA), followed by tumor promotion with local treatment of 12-O-tetradecanoylphorbol-13-acetate (TPA). Guo et al., “Disruption of EphA2 receptor tyrosine kinase leads to increased susceptibility to carcinogenesis in mouse skin” Cancer Res 2006, 66:7050-7058. The concentration/dose of BzATP and frequency of treatments were chosen based on data in cultured cells (supra).
The shaved dorsal skin was divided into two equal anterior and posterior areas. Each animal was treated with BzATP applied locally twice a week for […] on the anterior skin area; vehicle only was applied in parallel twice a week for 4 weeks on the posterior skin area. At the end of the experiment animals were euthanized by cervical dislocation and dorsal skin strips were obtained from each animal from the anterior and posterior skin areas for microscopic H&E tissue evaluation and P2X7 immunostaining.

[2] = system: DMBA/TPA-induced skin papillomas; assay: DMBA/TPA mouse skin papilloma model, 12 weeks (Experiment-3); assay type: in vivo
[3] = system: mouse wild-type normal keratinocytes; assay: Apoptosis in cultured mouse wild-type keratinocytes; assay type: cell-based; settings: 8 hours
[4] = system: mouse wild-type normal keratinocytes; assay: DNA synthesis ([3H]-thymidine incorporation) in mouse wild-type normal keratinocytes; assay type: cell-based; settings: BzATP 100 μM 8 hours; oligonucleotides 100 μM 14 hours
Protocol: FIG. 20 presents exemplary data showing the effects of pre-treatment with anti-sense P2X7 oligonucleotides (ASO) or random-control P2X7 oligonucleotides (RCO) (both at 100 μM for 14 hours), and of treatments with BzATP (100 μM, 8 hours) on [^3H]-thymidine incorporation in mouse wild-type normal keratinocytes (values are means±SD, n=4).
Changes in DNA synthesis were determined in terms of [^3H]-thymidine incorporation as described Wang et al., “EGF facilitates epinephrine inhibition of P2X7-receptor mediated pore formation and apoptosis: a novel signaling network” Endocrinology 2005, 146:164-174. The radioactivity (dpm/mg Protein, determined by Bio-Rad Protein Assay solution [Hercules, Calif.]) of triplicated samples was determined by beta scintillation counting (Beckman LS1801 scintillation counter).

hEVEC cells = assay: Apoptosis in hEVEC cells; assay type: cell-based, human
HeLa cells = assay: Apoptosis in HeLa cells; assay type: cell-based, human
[5] = biological solutions, range of temperatures and pH; cited from earlier work
[6] = system: cancer ectocervical, endocervical, endometrial cells and cancer keratinocytes; settings: fold lesser apoptosis after BzATP; cited from earlier work

SMILES: Nc1ncnc2c1ncn2[C@@H]1O[C@H](COP(=O)(O)OP(=O)(O)OP(=O)(O)O)[C@@H](OC(=O)c2ccc(C(=O)c3ccccc3)cc2)[C@H]1O [BzATP, 3′-O-(4-benzoylbenzoyl)adenosine triphosphate]
- BzATP-induced apoptosis (WT-MDCK cells): did not induce apoptosis
- augmentation of apoptosis [1]: 2.5 fold
- physical characteristics, behavior, feeding habits, weights (mouse skin; 1.0 μg/cm^2 twice weekly): no noticeable changes
- epidermal apoptosis (nuclear morphology, TUNEL) (mouse skin; twice weekly): augmented apoptosis of epidermal cells; also recorded: numerous epidermal basal/parabasal cells and epidermal hair shaft cells stained TUNEL positive
- histological H&E evaluation, treated versus control skin (mouse skin; twice weekly): no differences
- visible effect on the dorsal skin (mouse skin; twice weekly): no visible effect on the dorsal skin
- TUNEL staining of papilloma tissues ([2]; biopsy at week 10, basal/parabasal regions): intense TUNEL staining
- decrease of mean number of papillomas per animal ([2]; versus DMBA/TPA group): about 25%
- decrease of mean papilloma size ([2]; versus DMBA/TPA group): about 45%
- animals having at least one papilloma ([2]; week 6, DMBA/TPA+BzATP group): 53.8%
- papillomas per animal (mean±SEM) ([2]; week 10, DMBA/TPA+BzATP group): 1.23±0.34
- animals with at least one skin papilloma ([2]; week 12, DMBA/TPA+BzATP group): 78%
- mean papilloma size per animal (mean±SEM) ([2]; week 12, DMBA/TPA+BzATP group): 3.46 ±0.73 mm
- concentration of maximal apoptosis effect [3]: 100 to 250 µM
- lowest BzATP level at which apoptosis effects began [3]: 50 nM
- EC50 ([3]; Mus musculus, Keratinocyte, read-out: estimated EC50 of apoptosis augmentation): ~10 µM
- effect on [3H]-thymidine incorporation [4]: no significant effect
- increase of apoptosis by BzATP (hEVEC cells): 2.5 fold
- effect of BzATP on apoptosis (HeLa cells): no significant effect
- stability [5]: relatively stable compound in biological solutions and across a broad range of temperatures and pH
- apoptosis in cancer cells relative to the respective normal cells [6]: 2-5 fold
